What was measured:
[1] = tested on: mouse GIPR; assay: HTRF cAMP assay in transiently transfected AD-293 cells; format: cell-based; details: 30 min stimulation, n = 3–5
Method: (§1) AD-293 cells were transfected with desired plasmid DNA 24 h prior to cAMP quantification using the cAMP-Gs Dynamic 2 kit (Cisbio, France), as per manufacturer's protocol. Full details are provided in the supplementary methods.
(§2) AD-293 cells were added to a 12-well plate and maintained in 2 ml complete DMEM. 1 μg of specified plasmid DNA was added to each well alongside Lipofectamine 2000 (Thermo Fisher, UK). cAMP production was quantified 24 hours following transfection using homogenous time resolved fluorescence (HTRF), specifically the cAMP-Gs Dynamic 2 kit (Cisbio, France). Peptides and cells were diluted in DMEM + 1% P/S + 0.1% BSA. For peptide stability testing, cells, fresh peptide and peptide incubated with dispersed islet cells were diluted in RPMI-1640 (Thermo Fisher, UK) + 10% FBS + 1% P/S. 10 μl of peptide and 10 μl of cell suspension were added in duplicate to an opaque 96-well plate (Grenier Bio-One, Austria) and incubated at 37°C for 30 minutes. 10 μl of cAMP-d2 and anti-cAMP cryptate, both diluted in lysis buffer, were added in quick succession as per the manufacturer’s protocol. The plates were then incubated at room temperature for 45 minutes and read using the SpectraMax i3x (Molecular Devices, US).

[2] = biological target: T1, mouse GLP-1R (Mus musculus, UniProt O35659); assay: as above; format: cell-based; details: 30 min stimulation, n = 3–5
T1 construct: Plasmids encoding full length, wild-type human or mouse GLP-1R, GIPR or glucagon receptor (GCGR) in the pcDNA5/FRT vector; host or cells: AD-293
T1 sequence (O35659 22-463): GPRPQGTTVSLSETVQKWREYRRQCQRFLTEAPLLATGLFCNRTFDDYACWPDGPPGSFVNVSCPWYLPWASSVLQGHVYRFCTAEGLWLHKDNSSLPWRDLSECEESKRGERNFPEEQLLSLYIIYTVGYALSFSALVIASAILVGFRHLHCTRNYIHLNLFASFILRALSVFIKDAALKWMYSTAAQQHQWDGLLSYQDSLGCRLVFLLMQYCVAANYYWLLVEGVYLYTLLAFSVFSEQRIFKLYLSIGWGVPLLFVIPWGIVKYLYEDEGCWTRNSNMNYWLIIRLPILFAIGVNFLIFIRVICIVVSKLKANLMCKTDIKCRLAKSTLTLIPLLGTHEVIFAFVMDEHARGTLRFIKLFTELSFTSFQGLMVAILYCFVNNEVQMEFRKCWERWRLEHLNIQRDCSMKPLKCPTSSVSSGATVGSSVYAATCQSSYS
Method: as §1, §2

[3] = biological target: T2, human GLP-1R (Homo sapiens, UniProt P43220); assay: as above; format: cell-based; details: 30 min stimulation, n = 3–5
T2 construct: Plasmids encoding full length, wild-type human or mouse GLP-1R, GIPR or glucagon receptor (GCGR) in the pcDNA5/FRT vector; host or cells: AD-293
Method: as §1, §2

[4] = biological target: T3, human GIPR (Homo sapiens, UniProt P48546); assay: as above; format: cell-based; details: 30 min stimulation, n = 3–5
T3 construct: Plasmids encoding full length, wild-type human or mouse GLP-1R, GIPR or glucagon receptor (GCGR) in the pcDNA5/FRT vector; host or cells: AD-293
T3 sequence (P48546 22-466): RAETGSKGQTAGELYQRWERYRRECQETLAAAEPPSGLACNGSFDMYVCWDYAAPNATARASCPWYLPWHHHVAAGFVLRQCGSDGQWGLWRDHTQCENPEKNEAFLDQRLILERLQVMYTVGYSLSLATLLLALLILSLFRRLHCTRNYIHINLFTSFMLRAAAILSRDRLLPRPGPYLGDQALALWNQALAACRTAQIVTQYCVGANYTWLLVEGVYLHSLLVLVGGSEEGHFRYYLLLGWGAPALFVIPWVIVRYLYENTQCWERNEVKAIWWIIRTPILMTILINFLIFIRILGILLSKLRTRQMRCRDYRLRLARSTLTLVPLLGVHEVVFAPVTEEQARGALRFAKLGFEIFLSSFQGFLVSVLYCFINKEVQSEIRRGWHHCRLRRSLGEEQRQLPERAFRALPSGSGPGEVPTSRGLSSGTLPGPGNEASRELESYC
Method: as §1, §2

[5] = tested on: lean and HFD-induced obese mice; assay: In vivo GIPR desensitisation: IPGTT and insulin bleeds; design: species or system mouse
Method: In all in vivo studies, mice were randomised by body weight into groups. Mice received a 50 μL subcutaneous injection of saline (0.9% sodium chloride) or peptide at a specified dose, diluted in saline. Peptide dosing was in nmol per kg of total body weight. For the assessment of the chronic effects of GIP108, mice were injected daily for 15 days. Body composition was measured by EchoMRI on day −1 and day 15. An intraperitoneal glucose tolerance test (IPGTT) (2 g/kg) was conducted on day 14, following 6 h of fasting and 2 h after peptide injection. Non-fasting plasma leptin (ab199082, Abcam, UK), adiponectin (ab226900, Abcam, UK) and amino acids (ab65347, Abcam, UK) were measured on day 16. For the assessments of in vivo GIPR desensitisation, mice were injected at 17:00 with vehicle or GIP108 (30 nmol/kg) prior to an acute food intake study/IPGTT/insulin bleeds conducted the following day. Full details of the in vivo studies are provided in the supplementary methods.
Mice were fasted at 08:00. For all studies, 20% glucose was administered at 14:00, with the injection volume adjusted to the body weight of the mouse such that each mouse received glucose at 2 g/kg. To assess effects of GIP108 on day 14 of the chronic study, mice were dosed with saline or GIP108 at a specified dose at 12:00. […] Blood glucose measurements were taken via tail vein venesection at baseline, t=15, t=30, t=60, t=90 and t=120 mins. Glucose AUC is calculated using y=0. Glucose readings were measured in mmol/L using the same GlucoRx glucometer.
Mice were fasted at 08:00. At 14:00, mice received an intraperitoneal injection with 20% glucose, with the injection volume adjusted to the body weight of the mouse such that each mouse received glucose at 2 g/kg. […] Blood samples were taken via tail vein venesection at baseline and t=15 minutes following injection.
Leptin, adiponectin and amino acids were quantified following chronic GIP108 administration. Plasma amino acids were measured using the Abcam L-amino acid assay kit (ab65347, Abcam, UK). Plasma adiponectin was measured using the Abcam mouse adiponectin ELISA kit (ab226900, Abcam, UK). Plasma leptin was measured using the Abcam mouse leptin ELISA kit (ab199082, Abcam, UK). All assays were performed according to the manufacturer’s protocol and were read using the SpectraMax i3x Microplate Reader (Molecular Devices, US).

T2 sequence (P43220 24-463): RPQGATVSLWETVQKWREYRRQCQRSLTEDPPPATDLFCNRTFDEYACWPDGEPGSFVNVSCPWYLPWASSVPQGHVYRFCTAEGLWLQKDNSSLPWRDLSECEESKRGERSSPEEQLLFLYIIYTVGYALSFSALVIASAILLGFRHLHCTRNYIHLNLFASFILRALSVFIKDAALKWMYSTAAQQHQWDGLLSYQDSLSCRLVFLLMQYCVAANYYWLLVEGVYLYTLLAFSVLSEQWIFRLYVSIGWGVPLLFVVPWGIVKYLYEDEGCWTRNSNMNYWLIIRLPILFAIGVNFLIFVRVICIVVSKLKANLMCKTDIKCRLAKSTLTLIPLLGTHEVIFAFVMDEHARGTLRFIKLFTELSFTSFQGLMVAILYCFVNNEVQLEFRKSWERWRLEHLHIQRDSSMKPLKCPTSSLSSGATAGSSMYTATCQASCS

## CC[C@H](C)[C@H](NC(=O)[C@H](CO)NC(=O)[C@H](Cc1ccc(O)cc1)NC(=O)[C@H](CC(=O)O)NC(=O)[C@H](CO)NC(=O)[C@@H](NC(=O)[C@H](Cc1ccccc1)NC(=O)[C@@H](NC(=O)CNC(=O)[C@H](CCC(=O)O)NC(=O)C(C)(C)NC(=O)[C@@H](N)Cc1ccc(O)cc1)[C@@H](C)O)[C@@H](C)CC)C(=O)N[C@@H](C)C(=O)N[C@@H](CC(C)C)C(=O)N[C@@H](CC(=O)O)C(=O)N[C@@H](CCCCN)C(=O)N[C@H](C(=O)N[C@@H](Cc1c[nH]cn1)C(=O)N[C@@H](CCC(N)=O)C(=O)N[C@@H](CCC(N)=O)C(=O)N[C@@H](CC(=O)O)C(=O)N[C@@H](Cc1ccccc1)C(=O)N[C@H](C(=O)N[C@@H](CC(N)=O)C(=O)N[C@@H](Cc1c[nH]c2ccccc12)C(=O)N[C@@H](CC(C)C)C(=O)N[C@@H](CC(C)C)C(=O)N[C@@H](C)C(=O)N[C@@H](CCC(N)=O)C(=O)N[C@@H](CCCCN)C(=O)NCC(=O)N[C@@H](CCCCNC(=O)CC[C@H](NC(=O)CCCCCCCCCCCCCCCCCCC(=O)O)C(=O)O)C(=O)N[C@@H](CCCCN)C(=O)N[C@@H](CC(N)=O)C(=O)N[C@@H](CC(=O)O)C(=O)N[C@@H](Cc1c[nH]c2ccccc12)C(=O)N[C@@H](CCCCN)C(=O)N[C@@H](Cc1c[nH]cn1)C(=O)N[C@@H](CC(N)=O)C(=O)N[C@H](C(=O)N[C@H](C(=O)N[C@@H](CCC(N)=O)C(=O)O)[C@@H](C)O)[C@@H](C)CC)C(C)C)[C@@H](C)CC [GIP108]
[1]
  fold lower cAMP potency than hGIP at mouse GIPR: 19.6 fold
[2]
  cAMP activation of mouse GLP-1R: minimal activation
[3]
  cAMP activation of human GLP-1R: minimal activation
[4]
  cAMP potency at human GIPR compared with human GIP(1–42): potency similar to human GIP(1–42)
[5]; GIP108 30 nmol/kg s.c. 21 h prior to IPGTT, lean and HFD-induced obese mice, n = 14–16
  effect of GIP108 pre-treatment on hGIP (50 nmol/kg) improvement of glucose tolerance: ability to improve glucose tolerance was reduced
[5]; GIP108 30 nmol/kg s.c. 21 h prior, hGIP 50 nmol/kg, 15 min, lean mice, n = 8
  plasma insulin response to GIP/glucose administration after GIP108 pre-treatment: blunted

Reference: paper PMC11786100, “Chronic GIPR agonism results in pancreatic islet GIPR functional desensitisation” (Molecular Metabolism, 2025)
